According to patent US11878956B2, “Metal salts and uses thereof” (Inspirna, Inc., priority 2019, dated 2024):
Where two headings read alike, the source gives them in different places.

Experiments:
[1] = cited from earlier work
[2] = cited from earlier work; remark: listed apart in the source
endothelial recruitment = test: inhibition of endothelial recruitment in vitro; assay type: cell-based
[3] = ECG and heart rate in dogs (safety pharmacology); assay type: in vivo
[4] = clinical safety in subjects treated with Compound 1; assay type: in vivo
2E1 = 2E1 (Homo sapiens, UniProt P05181); test: CYP inhibition in vitro; assay type: in vitro ADME
[5] = oral PK in Sprague-Dawley rats; assay type: in vivo
oral PK in CD-1 mice = assay type: in vivo
[6] = system: CYP2E1, CYP2C9, CYP2C19, and possibly CYP2J2; test: in vitro metabolism by CYP isoforms (other substrates); assay type: in vitro ADME
[7] = neurobehavioral FOB and respiratory evaluations in rats; assay type: in vivo
CYP3A [8] = test: CYP3A time-dependent inhibition in vitro; assay type: in vitro ADME; details: testosterone as the substrate
1A1 = molecular target: T1, 1A1 (Homo sapiens, UniProt P04798); test: CYP inhibition in vitro; assay type: in vitro ADME
T1 sequence (P04798 1-512): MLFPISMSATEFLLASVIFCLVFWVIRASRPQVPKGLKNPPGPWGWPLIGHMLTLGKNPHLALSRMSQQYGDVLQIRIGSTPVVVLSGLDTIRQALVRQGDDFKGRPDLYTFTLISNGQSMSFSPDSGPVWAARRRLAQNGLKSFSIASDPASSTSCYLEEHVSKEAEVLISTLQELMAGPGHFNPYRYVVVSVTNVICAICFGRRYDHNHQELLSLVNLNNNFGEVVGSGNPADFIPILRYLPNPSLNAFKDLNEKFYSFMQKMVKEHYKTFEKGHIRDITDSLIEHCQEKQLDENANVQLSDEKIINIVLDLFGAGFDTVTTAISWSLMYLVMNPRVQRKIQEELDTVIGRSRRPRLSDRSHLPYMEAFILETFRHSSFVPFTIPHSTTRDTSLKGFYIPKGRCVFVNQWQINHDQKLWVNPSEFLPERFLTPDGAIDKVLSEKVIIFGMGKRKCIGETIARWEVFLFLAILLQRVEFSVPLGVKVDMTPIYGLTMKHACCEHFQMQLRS

ApoE [9] = test: ApoE gene expression induction in hPBMCs; assay type: cell-based, human
CYP3A4 = CYP3A4 (Homo sapiens, UniProt P08684); test: in vitro metabolism by CYP isoforms; assay type: in vitro ADME
CYP1A2 = test: CYP induction
[10] = oral PK in male Beagle dogs; assay type: in vivo
[11] = system: melanoma, glioblastoma, TNBC, ovarian cancer, and lung cancer; test: syngeneic and human xenograft mouse tumor models, primary tumor growth; assay type: in vivo
2C19 = 2C19 (Homo sapiens, UniProt P33261); test: CYP inhibition in vitro; assay type: in vitro ADME
CYP3A [12] = test: CYP induction in cryopreserved hepatocytes; assay type: in vitro ADME; details: primary cultures of cryopreserved hepatocytes (2 donors)
2A6 = molecular target: T2, 2A6 (Homo sapiens, UniProt P11509); test: CYP inhibition in vitro; assay type: in vitro ADME
T2 sequence (P11509 1-494): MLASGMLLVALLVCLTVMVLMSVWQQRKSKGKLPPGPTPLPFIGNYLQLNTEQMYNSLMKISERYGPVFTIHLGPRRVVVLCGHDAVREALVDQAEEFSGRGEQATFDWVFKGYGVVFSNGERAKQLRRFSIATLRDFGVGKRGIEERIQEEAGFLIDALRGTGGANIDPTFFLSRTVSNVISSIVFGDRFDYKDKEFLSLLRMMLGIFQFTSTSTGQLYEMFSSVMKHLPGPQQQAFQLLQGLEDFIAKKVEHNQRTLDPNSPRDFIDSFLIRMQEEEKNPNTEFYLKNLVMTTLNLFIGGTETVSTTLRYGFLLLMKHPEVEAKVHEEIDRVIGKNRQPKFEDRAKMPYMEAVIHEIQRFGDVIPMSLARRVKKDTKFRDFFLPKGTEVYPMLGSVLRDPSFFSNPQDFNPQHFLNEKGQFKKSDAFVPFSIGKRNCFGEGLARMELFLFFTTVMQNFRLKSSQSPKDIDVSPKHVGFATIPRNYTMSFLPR

[13] = oral PK in Cynomolgus monkeys; assay type: in vivo
CYP2B6 = test: CYP induction in cryopreserved hepatocytes; assay type: in vitro ADME; details: 1 concentration in 1/3 donors
ApoE [14] = test: ApoE gene expression induction in cancer cells; assay type: cell-based
2D6 = 2D6 (Homo sapiens, UniProt P10635); test: CYP inhibition in vitro; assay type: in vitro ADME
P-glucoprotein (P-gp) = P-glucoprotein (P-gp) (Homo sapiens, UniProt P08183); test: efflux transporter inhibition in vitro; assay type: in vitro ADME
2C9 = 2C9 (Homo sapiens, UniProt P11712); test: CYP inhibition in vitro; assay type: in vitro ADME
[15] = initial solubility assessment in 12 solvents/solvent mixtures; assay type: physicochemical; details: amorphous Compound 1, 12 solvents/solvent mixtures
Method: An initial solubility assessment was conducted in 12 solvents/solvent mixtures using amorphous Compound 1. […] Salt screening by cooling, anti-solvent addition, maturation, liquid assisted grinding, neat grinding and evaporation were all investigated. Gums isolated were subjected to heat/cool maturation cycles (room temperature/50° C.), sonication, prolonged storage under vacuum, prolonged storage at 40° C./75% RH, trituration with anti-solvent and liquid assisted grinding (LAG) with water. From extensive salt screening, eight hits were obtained. Amorphous hits with a high glass transition temperature (Tg) were identified from zinc chloride, naphthalene-2-sulfonic acid, 1,5-naphthalene disulfonic acid, and ethane sulfonic acid. One crystalline hit was identified from ethane sulfonic acid. Poorly crystalline material was isolated from calcium hydroxide, magnesium hydroxide and aluminum hydroxide.

[16] = molecular target: human ether-à-go-go-related gene (hERG) channel (Homo sapiens, UniProt Q12809); test: in vitro hERG assay; assay type: cell-based
[17] = animal / pre-clinical toxicology studies; assay type: in vivo
3A4 = 3A4 (Homo sapiens, UniProt P08684); test: CYP inhibition in vitro; assay type: in vitro ADME
[18] = stability of salts of Compound 1 during processing and formulation; details: for stability of strong acid salts: readily undergo apparent esterification with alcoholic solvents; for stability towards excipients and/or components of a formulation: salts react with excipients and/or components of a formulation
[19] = Table 6, counterion sources, second set Study 3
[20] = Table 5, counterion sources, first set Study 3

2C9, sequence (P11712 whole entry): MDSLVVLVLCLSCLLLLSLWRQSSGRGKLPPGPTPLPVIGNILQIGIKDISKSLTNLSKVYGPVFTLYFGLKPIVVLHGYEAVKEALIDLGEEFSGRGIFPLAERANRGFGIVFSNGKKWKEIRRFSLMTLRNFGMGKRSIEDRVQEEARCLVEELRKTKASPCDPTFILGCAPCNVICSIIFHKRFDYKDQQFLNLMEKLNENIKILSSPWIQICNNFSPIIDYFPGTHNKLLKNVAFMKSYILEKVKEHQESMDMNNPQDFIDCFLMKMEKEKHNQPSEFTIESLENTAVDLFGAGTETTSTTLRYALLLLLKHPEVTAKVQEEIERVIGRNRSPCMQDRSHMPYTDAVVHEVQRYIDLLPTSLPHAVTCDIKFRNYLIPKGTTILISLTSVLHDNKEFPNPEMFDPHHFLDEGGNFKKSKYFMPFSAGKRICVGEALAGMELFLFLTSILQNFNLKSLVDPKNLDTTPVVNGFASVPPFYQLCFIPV
CYP3A4, sequence (P08684 whole entry, canonical isoform): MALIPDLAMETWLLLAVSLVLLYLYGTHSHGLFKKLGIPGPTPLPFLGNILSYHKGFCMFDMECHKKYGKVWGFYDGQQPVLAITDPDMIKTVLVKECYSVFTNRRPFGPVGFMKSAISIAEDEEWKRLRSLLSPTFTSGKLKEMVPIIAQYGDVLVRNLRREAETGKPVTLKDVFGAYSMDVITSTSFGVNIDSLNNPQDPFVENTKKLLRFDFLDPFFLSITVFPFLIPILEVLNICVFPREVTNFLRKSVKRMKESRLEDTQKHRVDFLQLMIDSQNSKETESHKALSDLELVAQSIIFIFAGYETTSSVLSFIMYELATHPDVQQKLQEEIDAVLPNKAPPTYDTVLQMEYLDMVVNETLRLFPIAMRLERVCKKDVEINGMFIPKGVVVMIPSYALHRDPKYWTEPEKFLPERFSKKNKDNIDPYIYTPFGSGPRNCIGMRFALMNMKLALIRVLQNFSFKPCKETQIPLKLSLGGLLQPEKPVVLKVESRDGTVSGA
3A4, sequence (P08684 whole entry): as the sequence (P08684 whole entry, canonical isoform) above
human ether-à-go-go-related gene (hERG) channel, sequence (Q12809 whole entry): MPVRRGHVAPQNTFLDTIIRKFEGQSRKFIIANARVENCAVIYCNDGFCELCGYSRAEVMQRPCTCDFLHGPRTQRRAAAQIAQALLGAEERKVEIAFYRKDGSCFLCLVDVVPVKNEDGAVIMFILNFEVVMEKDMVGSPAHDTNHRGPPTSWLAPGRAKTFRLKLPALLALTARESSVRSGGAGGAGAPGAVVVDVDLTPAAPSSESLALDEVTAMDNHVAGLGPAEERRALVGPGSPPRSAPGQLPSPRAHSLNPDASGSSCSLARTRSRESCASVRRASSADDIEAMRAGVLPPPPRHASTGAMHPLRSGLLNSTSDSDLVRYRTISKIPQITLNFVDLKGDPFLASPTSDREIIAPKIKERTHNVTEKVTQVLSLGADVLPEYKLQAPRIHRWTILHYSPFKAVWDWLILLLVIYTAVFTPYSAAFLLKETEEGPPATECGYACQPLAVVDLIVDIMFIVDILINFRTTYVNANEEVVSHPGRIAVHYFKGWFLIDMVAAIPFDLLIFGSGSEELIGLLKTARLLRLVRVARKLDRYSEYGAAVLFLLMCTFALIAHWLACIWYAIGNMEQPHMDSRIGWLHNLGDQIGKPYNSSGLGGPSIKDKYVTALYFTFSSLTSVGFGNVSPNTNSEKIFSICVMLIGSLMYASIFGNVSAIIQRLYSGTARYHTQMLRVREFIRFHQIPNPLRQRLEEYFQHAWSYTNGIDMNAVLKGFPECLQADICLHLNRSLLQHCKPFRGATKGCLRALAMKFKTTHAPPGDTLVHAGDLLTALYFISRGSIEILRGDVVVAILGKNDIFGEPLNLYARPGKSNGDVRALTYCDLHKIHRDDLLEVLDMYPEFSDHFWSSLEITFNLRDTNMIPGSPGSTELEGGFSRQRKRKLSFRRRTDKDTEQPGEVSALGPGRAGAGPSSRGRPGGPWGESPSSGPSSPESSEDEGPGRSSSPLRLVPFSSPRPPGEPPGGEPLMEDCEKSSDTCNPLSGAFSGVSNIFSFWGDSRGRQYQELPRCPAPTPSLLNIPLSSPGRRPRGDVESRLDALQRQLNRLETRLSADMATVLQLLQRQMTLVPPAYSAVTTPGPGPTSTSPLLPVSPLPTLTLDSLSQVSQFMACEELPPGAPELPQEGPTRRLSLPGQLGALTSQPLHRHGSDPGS
P-glucoprotein (P-gp), sequence (P08183 whole entry): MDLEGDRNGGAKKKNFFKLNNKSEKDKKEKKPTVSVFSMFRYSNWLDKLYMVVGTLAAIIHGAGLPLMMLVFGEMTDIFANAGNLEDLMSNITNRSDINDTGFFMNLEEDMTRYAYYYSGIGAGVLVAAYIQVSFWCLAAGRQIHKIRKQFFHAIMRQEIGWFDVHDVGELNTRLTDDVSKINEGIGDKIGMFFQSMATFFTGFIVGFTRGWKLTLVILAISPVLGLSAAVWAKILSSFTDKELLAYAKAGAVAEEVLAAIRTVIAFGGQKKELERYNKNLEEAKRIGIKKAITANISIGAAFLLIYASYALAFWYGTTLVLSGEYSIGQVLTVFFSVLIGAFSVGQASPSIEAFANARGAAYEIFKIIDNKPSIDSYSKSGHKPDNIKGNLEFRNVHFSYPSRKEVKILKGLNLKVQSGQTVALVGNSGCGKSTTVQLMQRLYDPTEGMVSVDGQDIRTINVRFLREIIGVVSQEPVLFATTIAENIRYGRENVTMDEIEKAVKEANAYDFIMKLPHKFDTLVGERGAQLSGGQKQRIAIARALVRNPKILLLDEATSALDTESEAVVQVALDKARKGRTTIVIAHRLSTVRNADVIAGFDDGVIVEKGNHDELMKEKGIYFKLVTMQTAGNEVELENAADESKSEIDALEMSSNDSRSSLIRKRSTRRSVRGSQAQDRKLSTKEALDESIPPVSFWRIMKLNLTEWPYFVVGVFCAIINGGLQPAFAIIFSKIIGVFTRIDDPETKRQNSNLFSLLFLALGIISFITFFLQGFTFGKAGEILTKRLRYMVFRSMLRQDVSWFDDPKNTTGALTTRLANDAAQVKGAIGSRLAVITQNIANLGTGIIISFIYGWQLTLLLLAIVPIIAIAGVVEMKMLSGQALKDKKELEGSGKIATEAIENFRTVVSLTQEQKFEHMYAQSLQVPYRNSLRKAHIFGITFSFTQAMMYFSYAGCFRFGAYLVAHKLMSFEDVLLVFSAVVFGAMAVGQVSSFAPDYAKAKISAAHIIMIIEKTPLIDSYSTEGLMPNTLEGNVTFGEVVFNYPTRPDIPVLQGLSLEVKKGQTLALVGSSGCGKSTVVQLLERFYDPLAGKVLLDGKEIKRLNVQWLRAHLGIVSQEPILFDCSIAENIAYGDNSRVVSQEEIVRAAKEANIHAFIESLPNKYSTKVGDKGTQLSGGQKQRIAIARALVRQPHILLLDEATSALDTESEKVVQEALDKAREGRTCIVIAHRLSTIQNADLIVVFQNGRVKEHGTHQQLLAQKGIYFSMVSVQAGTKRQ
2C19, sequence (P33261 whole entry): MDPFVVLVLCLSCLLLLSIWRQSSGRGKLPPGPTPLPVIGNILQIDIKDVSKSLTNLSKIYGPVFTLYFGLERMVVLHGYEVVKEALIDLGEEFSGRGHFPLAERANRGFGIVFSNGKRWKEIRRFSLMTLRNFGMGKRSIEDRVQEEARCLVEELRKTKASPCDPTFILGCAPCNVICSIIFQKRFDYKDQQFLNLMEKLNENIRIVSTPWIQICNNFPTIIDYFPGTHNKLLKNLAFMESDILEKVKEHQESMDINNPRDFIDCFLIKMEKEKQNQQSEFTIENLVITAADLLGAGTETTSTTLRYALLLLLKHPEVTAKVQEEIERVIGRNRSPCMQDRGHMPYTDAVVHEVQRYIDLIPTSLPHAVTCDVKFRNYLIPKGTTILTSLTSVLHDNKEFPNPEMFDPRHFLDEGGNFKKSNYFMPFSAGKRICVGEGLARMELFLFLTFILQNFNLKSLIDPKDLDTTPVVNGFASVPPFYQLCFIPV
2D6, sequence (P10635 whole entry): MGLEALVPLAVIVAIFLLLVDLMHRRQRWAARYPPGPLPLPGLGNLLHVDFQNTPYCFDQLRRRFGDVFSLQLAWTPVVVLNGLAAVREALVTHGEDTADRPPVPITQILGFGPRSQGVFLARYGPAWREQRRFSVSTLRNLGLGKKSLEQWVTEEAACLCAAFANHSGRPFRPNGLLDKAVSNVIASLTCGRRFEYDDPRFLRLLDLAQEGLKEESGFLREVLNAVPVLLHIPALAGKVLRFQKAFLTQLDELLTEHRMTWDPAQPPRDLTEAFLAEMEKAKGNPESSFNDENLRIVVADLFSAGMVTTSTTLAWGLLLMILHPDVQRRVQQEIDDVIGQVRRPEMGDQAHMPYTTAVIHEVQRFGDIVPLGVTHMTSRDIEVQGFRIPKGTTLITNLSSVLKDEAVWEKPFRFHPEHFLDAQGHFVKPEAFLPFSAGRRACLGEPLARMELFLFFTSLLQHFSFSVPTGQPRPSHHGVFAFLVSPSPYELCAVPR
2E1, sequence (P05181 whole entry): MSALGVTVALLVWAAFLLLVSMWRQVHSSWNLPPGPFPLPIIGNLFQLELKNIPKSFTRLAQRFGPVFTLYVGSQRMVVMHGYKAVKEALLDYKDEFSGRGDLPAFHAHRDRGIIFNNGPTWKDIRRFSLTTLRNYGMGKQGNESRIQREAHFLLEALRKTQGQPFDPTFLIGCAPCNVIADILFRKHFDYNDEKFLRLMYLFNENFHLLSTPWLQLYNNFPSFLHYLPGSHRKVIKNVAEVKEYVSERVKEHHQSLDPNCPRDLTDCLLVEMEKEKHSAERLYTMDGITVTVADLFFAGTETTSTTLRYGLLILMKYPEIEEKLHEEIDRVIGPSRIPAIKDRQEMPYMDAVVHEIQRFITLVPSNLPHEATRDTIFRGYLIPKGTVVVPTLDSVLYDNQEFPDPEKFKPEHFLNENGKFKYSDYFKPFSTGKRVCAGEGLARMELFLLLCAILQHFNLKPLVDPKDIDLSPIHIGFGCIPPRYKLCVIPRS

For OCCN1CCCC1 [1-(2-Hydroxyethyl)-pyrrolidine], the pKa1 [1, 19] is given as 9.4.
For [NH2][Pt]1([NH2])[O]C(=O)C2(CCC2)C(=O)[O]1 [Carboplatin, platinum, diamine[1,1-cyclobutanedicarboxylato(2-)-O,O′]-(SP-4-2)], the “pH of a 1% solution” value ([2]; 1% solution) is given as 5-7, the “solubility in ethanol, acetone, and dimethylacetamide” value ([2]; ethanol, acetone, dimethylacetamide) is given as “virtually insoluble” and the solubility in water ([2]; water) is given as “approximately 14 mg/mL”.
For C[N+](C)(C)CCO [Choline], the pKa1 [1, 20] is listed as over 11.0.
For C[C@H](CCOc1cccc(CC(=O)O)c1)N(Cc1cccc(C(F)(F)F)c1Cl)CC(c1ccccc1)c1ccccc1 [Compound 1, 2-[3-[(3R)-3-[[2-chloro-3-(trifluoromethyl)phenyl]methyl-(2,2-diphenylethyl)amino]butoxy]phenyl]acetic acid], the “inhibition of endothelial recruitment” value (endothelial recruitment) was about 50%, the “effects on qualitative ECG parameters (PR or QTc intervals or QRS duration)” value [3] was “no Compound 1-related effects” and the mean heart rate ([3]; Day 1 post-dose interval, significant in females at 150 (stepped down to 100) mg/kg/day) was “dose related decrease”. For the same compound, the “dose limiting toxicity on single agent therapy” value ([4]; Compound 1 single agent therapy) was “DLT of Grade 4 neutropenia”, the “hyperlipidemia in treated subjects” value ([4]; subjects treated with Compound 1) was “hyperlipidemia has been observed” and the “inhibition of 2E1” value (2E1) was “very weakly inhibited”. The “mean apparent oral t %” value ([5]; female rats) was 6.5 h, the “clearance, females versus males” value ([5]; rats) was “cleared at a lower rate in female rats compared to males” and the “food effect: plasma concentrations fed state” value (oral PK in CD-1 mice) was over 2 fold. For the same compound, the “substrate for other CYP isoforms” value [6] was “also a substrate”, the “neurobehavioral FOB or respiratory evaluations” value [7] was “no adverse effects” and the “CYP3A time-dependent inhibition (TDI)” value (CYP3A [8]) was “time-dependent inhibition (TDI) was demonstrated”. For the same compound, the “inhibition of 1A1” value (1A1) was “very weakly inhibited”, the EC50 (ApoE [9]; Homo sapiens) was 271 nM and the “induction of ApoE gene expression” value (ApoE [9]; compared to control cells) was “up to 40 fold”. The “metabolism by CYP3A4” value (CYP3A4) was “metabolized predominantly”, the “induction of CYP1A2” value (CYP1A2) was “did not induce” and the “mean apparent oral t %” value [10] was 5 to 6.7 h. For the same compound, the “exposures at minimum efficacious doses” value ([11]; 25-40 mg/kg/day PO) was 10,000-50,000 ng-h/mL, the minimum efficacious doses ([11]; administered orally (PO), tumor growth studies) was 25 to 40 mg/kg/day and the “inhibition of 2C19” value (2C19) was “very weakly inhibited”. The “induction of CYP3A” value (CYP3A [12]) was “Induction of CYP3A by Compound 1 was demonstrated”, the “inhibition of 2A6” value (2A6) was “very weakly inhibited” and the “Mean oral t %” value [13] was 5.5 to 8 h. The “induction of CYP2B6” value (CYP2B6) was over 2 fold, the EC50 (ApoE [14]) was 385 nM and the “induction of ApoE gene expression” value (ApoE [14]; compared to control cells) was 3 fold. For the same compound, the “inhibition of 2D6” value (2D6) was “very weakly inhibited”, the “inhibition of P-gp” value (P-glucoprotein (P-gp)) was “does not inhibit” and the “inhibition of 2C9” value (2C9) was “very weakly inhibited”. For the same compound, the “solubility in solvents/solvent mixtures” value [15] was “Dissolution was observed in most of the samples”, the hERG channel conductance [16] was “significant increase, but not inhibition” and the “potential risks based on animal toxicology studies” value ([17]; animal toxicology studies) was “elevations in serum cholesterol and TG, neutropenia/leukopenia, nausea and/or vomiting, elevations in liver enzymes, development or worsening of cataracts, cardiac rhythm disturbances and/or reduced cardiac function, harderian gland adenocarcinoma, and/or generalized edema”. For the same compound, the “liver function in pre-clinical toxicity studies” value ([17]; pre-clinical toxicity studies) was “Liver function abnormalities have been observed” and the “inhibition of 3A4” value (3A4) was “very weakly inhibited”.
For OCCNCCO [Diethanolamine], the pKa1 [1, 20] is given as 9.5.
In the case of O=S(=O)(O)CCS(=O)(=O)O [Ethane-1,2-disulfonic acid], the pKa1 [1, 20] is given as −2.1.
For CCS(=O)(=O)O [Ethanesulfonic acid], the pKa1 [1, 20] is given as −1.6.
In the case of O=C(O)CNC(=O)c1ccccc1 [Hippuric acid], the pKa1 [1, 19] is given as 3.6.
For N[C@@H](Cc1c[nH]cn1)C(=O)O [Histidine], the pKa1 [1, 19] is given as 9.2.
In the case of N=C(N)NCCC[C@H](N)C(=O)O [L-Arginine], the pKa1 [1, 20] is given as 9.0.
For NCCCC[C@H](N)C(=O)O [L-Lysine], the pKa1 [1, 19] is given as 9.2.
In the case of O=S(=O)(O)c1ccc2ccccc2c1 [Naphthalene-2-sulfonic acid], the pKa1 [1, 20] is given as 0.17.
In the case of O=[N+]([O-])O [Nitric acid], the pKa1 [1, 20] is given as −1.3.
For O=C(O)c1cc2ccccc2c(Cc2c(O)c(C(=O)O)cc3ccccc23)c1O [Pamoic acid], the pKa1 [1, 19] is given as 2.5.
For O=S(=O)([O-])CCS(=O)(=O)[O-].[Na+].[Na+] [Sodium edisylate], the pKa1 [1, 19] is given as −2.1.
For O=S(=O)([O-])CCO.[Na+] [Sodium isethionate], the pKa1 [1, 19] is listed as 1.7.
For N#CS [Thiocyanic acid], the pKa1 [1, 19] is listed as −1.3.
In the case of CS(=O)(=O)O [methanesulfonic acid], the “stability of strong acid salts” value [18] is reported as “prone to instability” and the “stability towards excipients and/or components of a formulation” value [18] is reported as “unstable”.
For H2SO4 [Compound H2SO4], the “stability of strong acid salts” value [18] was “prone to instability” and the “stability towards excipients and/or components of a formulation” value [18] was “unstable”.
